In patent US20090215778A1, “Alpha-substituted Arylmethyl Piperazine Pyrazolo [1,5-alpha]Pyrimidine Amide Derivatives” (priority 2007, published 2009):

Tests used:
[1] = test system: HIV-1, NL4-3 strain; test: Virus infection assay (virus entry and single-cycle infection); assay type: cell-based; details: Human immunodeficiency virus 1, NL43, TZM-b1, read-out: Nl4
In short: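 TZM-b1 cells (CD4, CXCR4, CCR5; LTR-driven lacZ/luciferase reporters) were infected with HIV-1 NL4-3 (MOI 0.01) with 80 μg/mL DEAE-dextran in the presence of test compound, 4 h at 37 °C before adding complete medium. Infection was quantified one day post-infection as chemiluminescent β-galactosidase signal.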

[2] = biological target: T1, HIV Env six-helix bundle (6HB) structure (Human immunodeficiency virus type 1 group M subtype B, UniProt P04579); test: Six-helix bundle (6HB) assay; assay type: cell-based, HIV-1 (strain RF)
T1 construct: H9 cells chronically infected with HIV-1 (H9/HIV-1RF); endogenous in cells; host or cells: H9 cells chronically infected with HIV-1 strain RF (Env is made from the virus in the infected cells, not by transfection)
T1 sequence (P04579 32-519): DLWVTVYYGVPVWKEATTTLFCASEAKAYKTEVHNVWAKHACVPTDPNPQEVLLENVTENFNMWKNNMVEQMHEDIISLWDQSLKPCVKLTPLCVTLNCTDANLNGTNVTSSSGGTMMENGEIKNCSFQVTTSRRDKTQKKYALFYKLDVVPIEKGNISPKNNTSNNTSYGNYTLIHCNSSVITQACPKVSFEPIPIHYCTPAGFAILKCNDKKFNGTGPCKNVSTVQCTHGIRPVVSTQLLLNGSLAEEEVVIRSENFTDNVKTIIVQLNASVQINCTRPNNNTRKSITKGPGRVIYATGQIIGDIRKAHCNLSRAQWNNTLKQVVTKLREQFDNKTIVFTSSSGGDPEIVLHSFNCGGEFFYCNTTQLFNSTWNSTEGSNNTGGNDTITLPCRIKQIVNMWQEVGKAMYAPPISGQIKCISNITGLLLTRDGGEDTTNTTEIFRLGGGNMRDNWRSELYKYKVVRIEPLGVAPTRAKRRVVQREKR
T1 sequence (P04579 520-865): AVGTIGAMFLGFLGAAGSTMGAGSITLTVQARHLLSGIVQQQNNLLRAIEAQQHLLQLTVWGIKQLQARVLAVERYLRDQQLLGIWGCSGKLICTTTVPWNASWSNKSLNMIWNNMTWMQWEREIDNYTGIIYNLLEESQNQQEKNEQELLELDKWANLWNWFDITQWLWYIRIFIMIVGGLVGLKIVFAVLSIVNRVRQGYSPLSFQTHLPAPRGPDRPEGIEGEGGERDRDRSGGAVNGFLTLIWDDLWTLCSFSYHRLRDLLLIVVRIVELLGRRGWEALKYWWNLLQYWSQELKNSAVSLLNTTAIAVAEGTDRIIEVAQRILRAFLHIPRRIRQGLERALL
In short: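 Chronically HIV-1 RF-infected H9 cells (12-40 days post-infection), 2.5×10^5 per well, were preincubated with compound for 30 min at 37 °C. sCD4 at 1 μg/mL was added for 1 h to trigger Env changes. 6HB-specific rabbit serum (1 h, 37 °C) was then added, followed by PE anti-rabbit (45 min, 4 °C), with flow cytometric fluorescence read-out.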

| Structure (SMILES) | IC50 [1] [nM] | IC50 [2] [nM] |
| --- | --- | --- |
| COc1ccc(-c2nc3c(C(=O)N4CCN(C(CO)c5ccccc5NC(N)=O)C[C@H]4C)cnn3c(C(F)(F)F)c2C)cc1 (stereo partly drawn) [urea, N-[2-[2-hydroxy-1-[(3R)-4-[[5-(4-methoxyphenyl)-6-methyl-7-(trifluoromethyl)pyrazolo[1,5-α]pyrimidin-3-yl]carbonyl]-3-methyl-1-piperazinyl]ethyl]phenyl]-] | > 10100 | > 10100 |
| COc1ccc(-c2nc3c(C(=O)N4CCN(C(CO)c5cccc(NC(N)=O)c5)C[C@H]4C)cnn3c(C(F)(F)F)c2C)cc1 (stereo partly drawn) [urea, N-[3-[2-hydroxy-1-[(3R)-4-[[5-(4-methoxyphenyl)-6-methyl-7-(trifluoromethyl)pyrazolo[1,5-α]pyrimidin-3-yl]carbonyl]-3-methyl-1-piperazinyl]ethyl]phenyl]-] | 1100 to 10000 | < 1000 |
| COc1ccc(-c2nc3c(C(=O)N4CCN([C@@H](C)c5cccc(NC(N)=O)c5)C[C@H]4C)cnn3c(C(F)(F)F)c2C)cc1 [urea, N-[3-[(1S)-1-[(3R)-4-[[5-(4-methoxyphenyl)-6-methyl-7-(trifluoromethyl)pyrazolo[1,5-α]pyrimidin-3-yl]carbonyl]-3-methyl-1-piperazinyl]ethyl]phenyl]-] | < 1000 | < 1000 |
| COc1ccc(-c2nc3c(C(=O)N4CCN([C@@H](C)c5ccc(NC(N)=O)cc5)C[C@H]4C)cnn3c(C(F)(F)F)c2C)cc1 [urea, N-[4-[(1)-1-[(3R)-4-[[5-(4-methoxyphenyl)-6-methyl-7-(trifluoromethyl)pyrazolo[1,5-α]pyrimidin-3-yl]carbonyl]-3-methyl-1-piperazinyl]ethyl]phenyl]-] | < 1000 | 1100 to 10000 |
